These compounds were tested against T1, full-length human Mineralocorticoid Receptor (MR) (Homo sapiens, UniProt P08235) (assay: human MR NH Pro assay (PathHunter Protein:Protein interaction assay, MR antagonism)). Details: PathHunter CHO-K1 cells that overexpress human MR; aldosterone (0.3 nM), 6 hours at 37° C.; antagonist mode; read-out: IC50 rating.
T1 construct: full-length human Mineralocorticoid Receptor (MR); host or cells: PathHunter CHO-K1 cells
T1 sequence (P08235 1-984): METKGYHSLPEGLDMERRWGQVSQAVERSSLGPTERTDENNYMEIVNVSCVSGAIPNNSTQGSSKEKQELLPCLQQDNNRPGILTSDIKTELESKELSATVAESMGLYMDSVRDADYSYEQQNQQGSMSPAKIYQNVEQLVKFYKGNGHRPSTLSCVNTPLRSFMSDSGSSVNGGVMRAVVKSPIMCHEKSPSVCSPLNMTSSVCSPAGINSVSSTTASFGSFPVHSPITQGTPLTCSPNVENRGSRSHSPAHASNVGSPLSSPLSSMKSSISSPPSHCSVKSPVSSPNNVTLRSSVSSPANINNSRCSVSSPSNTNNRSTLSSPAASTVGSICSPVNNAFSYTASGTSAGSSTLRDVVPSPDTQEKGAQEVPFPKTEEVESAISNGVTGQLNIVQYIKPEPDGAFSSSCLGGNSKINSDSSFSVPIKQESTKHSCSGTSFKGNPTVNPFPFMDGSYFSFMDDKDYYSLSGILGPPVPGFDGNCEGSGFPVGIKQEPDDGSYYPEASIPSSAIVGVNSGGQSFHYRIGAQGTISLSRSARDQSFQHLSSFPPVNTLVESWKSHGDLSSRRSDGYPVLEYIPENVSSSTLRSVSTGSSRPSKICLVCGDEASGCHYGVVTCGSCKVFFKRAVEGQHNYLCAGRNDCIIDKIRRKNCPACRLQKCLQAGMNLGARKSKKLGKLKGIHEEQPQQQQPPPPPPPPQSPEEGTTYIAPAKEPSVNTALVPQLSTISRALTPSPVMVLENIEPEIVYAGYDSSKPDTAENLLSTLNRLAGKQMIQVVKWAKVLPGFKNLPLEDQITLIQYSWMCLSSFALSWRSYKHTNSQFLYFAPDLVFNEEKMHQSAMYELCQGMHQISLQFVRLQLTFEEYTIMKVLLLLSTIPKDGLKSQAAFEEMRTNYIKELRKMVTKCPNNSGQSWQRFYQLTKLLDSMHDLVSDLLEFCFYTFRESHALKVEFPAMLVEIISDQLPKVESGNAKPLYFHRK
Format: cell-based
Procedure: The activity of the compounds of the present invention regarding mineralocorticoid receptor antagonism was evaluated using the following assay.
Assessment of Mr Potency in HMR NH Pro Assay
The human MR NH Pro assay is a commercially available PathHunter™ Protein:Protein interaction assay (DiscoveRx; http://www.discoverx.com/nhrs/prod-nhrs.php) that measures the ability of compounds to antagonize full-length human Mineralocorticoid Receptor (MR) binding to a coactivator peptide. PathHunter™ CHO—K1 cells that overexpress human MR (Cat #93-0456C2, Lot No: 09B0913) were cultured in growth media (F12K w/Glutamine and phenol red (Gibco 11765-047) supplemented with 10% HI FBS (Gibco 16000); 0.25 mg/ml Hygromycin in PBS (Invitrogen 10687-010, 50 mg/ml); 100 I.U./mL and 100 μg/mL Pen/Strep (Gibco 15140-122); 0.6 mg/mL Geneticin).
Compounds were assessed for MR antagonist activity by incubating the cells with a titrating dose of compound in F12K w/Glutamine and phenol red culture media (Invitrogen 11765-047) supplemented with 1% Charcoal/Dextran Treated FBS (Hyclone #SH30068.01) and aldosterone (0.3 nM) for 6 hours at 37° C. […] Growth Media: • F12K w/Glutamine and phenol red (Gibco 11765-047) • 10% HI FBS (Gibco 16000) • 0.25 mg/ml Hygromycin in PBS (Invitrogen 10687-010, 50 mg/ml) • 100 I.U./mL and 100 μg/mL Pen/Strep (Gibco 15140-122) • 0.6 mg/mL Geneticin (Gibco 10131, 50 mg/ml) • 2. Assay Media: • F12K w/Glutamine and phenol red (Invitrogen 11765-047) • 1% Charcoal/Dextran Treated FBS (Hyclone #SH30068.01) • 3. 3× PathHunter Detection Reagents (Cat#93-0001) (need ˜6 ml/plate). […] Control Agonist:Aldosterone:Sigma cat# A9477 • Prepare stock solution-10 μM in DMSO kept at −20° C. • for assay, dilute in assay media to 1.8 or 6 nM (6× of final concentration=about 0.3 nM to about 1.0 nM) • 5. Cell line: PathHunter CHO—K1 MR cells Cat #93-0456C2, Lot No: 09B0913, from operation liquid nitrogen stock. • 6. Control Antagonist:Spironolactone:Sigma #S-3378 and Eplerenone Sigma #107724-20-9 (10 mM stock concentration also prepared in DMSO and stored at −20° C.). • Methods: • Assay Set up and Calculations: • 1. Cells were grown in F12+FBS+Hygromycin+pen/strep+Genetin • 2. Cells were collected with 0.05% trypsin and the cell suspension was spun and resuspended in a volume of F12+1.5% CD-FBS and counted. • 3. The cells were resuspended to 4×10^5 cells/mL. • 4. Cells were (25 μL/well) added to the wells of a 384 well plate. • 5. The plate was then incubated at 37° C. over night in a humidified incubator with 5% CO2. • 6. Test compounds were titrated starting at 4.4 mM, 10-point titration in 1:3 dilution. • 7. Aldosterone was diluted in assay media to 1.8 nM or 6 nM from 10 μM stock (final concentration to be about 0.3 nM to about 1.0 nM). • Protocol for 384 Well Plate Format: 6 Hr Treatment: • 1. Plated 10K exponentially growing cells/well (25 μL) resuspended in assay media to each well using the Multidrop (Thermo Electron) (use white wall, clear bottom assay plates (Costar #3570) and incubate overnight at 37° C., 5% CO2. • 2. 0.25 μL 120× test compound (final DMSO concentration should be <1%) was added to each well n=2, 10 point titrations starting at 36.7 μM final concentration. • 3. 5 μL 6× agonist (final aldosterone concentration should be about 0.3 nM to about 1.0 nM) was added to all wells using the PlateMate Plus.
(ThermoFisher) (except those wells in columns 23 and 24) • 4. 5 μL of assay media was added to all wells in column 23 and 24. • 5. Plates were incubated 6 hrs at 37° C., 5% CO2. • 6. 15 μL 3× DiscoveRx detection reagent was added to each well. • 7. Plates were incubated for 1 hour at room temperature (plates stored in the dark). • 8. Plates were read on Envision (PerkinElmer) luminesence plate reader and analyzed using ADA.

Question: For `C[C@H](c1ccc(F)cc1)N1C(=O)O[C@](Cc2ccccc2)(c2nc3cc(-c4cccnc4)ccc3[nH]2)C1=O` [Compound 25, (5R)-5-Benzyl-3-[(1R)-1-(4-fluorophenyl)ethyl]-5-(5-pyridin-3-yl-1H-benzimidazol-2-yl)-1,3-oxazolidine-2,4-dione], which IC50 is on record?
Answer: The IC50 was less than 100 nM.

Question: How did the IC50 turn out when `CNC(=O)c1ccc2[nH]c([C@@]3(Cc4ccccc4)OC(=O)N([C@H](C)c4ccc(F)cc4)C3=O)nc2c1` [Compound 21, Methyl 2-{(5R)-5-benzyl-3-[(1R)-1-(4-fluorophenyl)ethyl]-2,4-dioxo-1,3-oxazolidin-5-yl}-1H-benzimidazole-5-carboxamide] was run?
Answer: The IC50 was 100 to 500 nM.

Question: How did the IC50 turn out when `COc1ncccc1-c1cccc2[nH]c([C@@]3(Cc4ccccc4)OC(=O)N([C@H](C)c4ccc(F)cc4)C3=O)nc12` [Compound 33, (5R)-5-Benzyl-3-[(1R)-1-(4-fluorophenyl)ethyl]-5-[4-(2-methoxypyridin-3-yl)-1H-benzimidazol-2-yl]-1,3-oxazolidine-2,4-dione] was run?
Answer: Its IC50 is less than 100 nM.

Question: With `C[C@H](c1ccc(F)cc1)N1C(=O)O[C@](Cc2ccccc2)(c2nc3c(-c4cnn(C)c4)cccc3[nH]2)C1=O` [Compound 31, (5R)-5-Benzyl-3-[(1R)-1-(4-fluorophenyl)ethyl]-5-[4-(1-methyl-1H-pyrazol-4-yl)-1H-benzimidazol-2-yl]-1,3-oxazolidine-2,4-dione] as the compound, how does the IC50 read?
Answer: Its IC50 is 100 to 500 nM.

Question: For `C[C@H](c1ccc(F)cc1)N1C(=O)O[C@](Cc2ccccc2)(c2nc3cc(-n4cnnn4)ccc3[nH]2)C1=O` [Compound 6, (5R)-5-Benzyl-3-[(1R)-1-(4-fluorophenyl)ethyl]-5-[6-(1H-tetrazol-1-yl)-1H-benzimidazol-2-yl]-1,3-oxazolidine-2,4-dione], which IC50 is on record?
Answer: The IC50 was 100 to 500 nM.

Question: For `C[C@H](c1ccc(F)cc1)N1C(=O)O[C@](Cc2ccccc2)(c2nc3ccccc3[nH]2)C1=O` [Compound 3, (5R)-5-(1H-Benzimidazol-2-yl)-5-benzyl-3-[(1R)-1-(4-fluorophenyl)ethyl]-1,3-oxazolidine-2,4-dione], which IC50 is on record?
Answer: The IC50 was 100 to 500 nM.

Question: For `C[C@H](c1ccc(F)cc1)N1C(=O)O[C@](Cc2ccccc2)(c2nc3c(-c4cnoc4)cccc3[nH]2)C1=O` [Compound 30, (5R)-5-Benzyl-3-[(1R)-1-(4-fluorophenyl)ethyl]-5-(4-isoxazol-4-yl-1H-benzimidazol-2-yl)-1,3-oxazolidine-2,4-dione], which IC50 is on record?
Answer: The IC50 was 500 to 2000 nM.

Question: Which IC50 does the source give for `C[C@H](c1ccc(F)cc1)N1C(=O)O[C@](Cc2ccccc2)(c2nc3ccc(CN4CCOCC4)cc3[nH]2)C1=O` [Compound 10, (5R)-5-Benzyl-3-[(1R)-1-(4-fluorophenyl)ethyl]-5-[5-(morpholinylmethyl)-1H-benzimidazol-2-yl]-1,3-oxazolidine-2,4-dione] here?
Answer: The IC50 was 100 to 500 nM.

Question: With `C[C@H](c1ccc(F)c(F)c1)N1C(=O)O[C@](Cc2ccccc2)(c2nc3ccc(Cl)cc3[nH]2)C1=O` [Compound 15, (5R)-5-Benzyl-5-(6-chloro-1H-benzimidazol-2-yl)-3-[(1R)-1-(3,4-difluorophenyl)ethyl]-1,3-oxazolidine-2,4-dione] as the compound, how does the IC50 read?
Answer: The IC50 was 100 to 500 nM.

Question: Which IC50 does the source give for `C[C@H](c1ccc(F)cc1)N1C(=O)O[C@](Cc2ccccc2)(c2nc3cc(-c4cnn(C)c4)ccc3[nH]2)C1=O` [Compound 24, (5R)-5-Benzyl-3-[(1R)-1-(4-fluorophenyl)ethyl]-5-[5-(1-methyl-1H-pyrazol-4-yl)-1H-benzimidazol-2-yl]-1,3-oxazolidine-2,4-dione] here?
Answer: The IC50 was less than 100 nM.

Question: For `C[C@H](c1ccc(F)cc1)N1C(=O)O[C@](Cc2ccccc2)(c2nc3cc(-c4cn[nH]c4)ccc3[nH]2)C1=O` [Compound 26, (5R)-5-Benzyl-3-[(1R)-1-(4-fluorophenyl)ethyl]-5-[5-(1H-pyrazol-4-yl)-1H-benzimidazol-2-yl]-1,3-oxazolidine-2,4-dione], which IC50 is on record?
Answer: The IC50 was less than 100 nM.

Question: `C[C@H](c1ccc(F)cc1)N1C(=O)O[C@](Cc2ccccc2)(c2nc3cc(-c4cncnc4)ccc3[nH]2)C1=O` [Compound 22, (5R)-5-Benzyl-3-[(1R)-1-(4-fluorophenyl)ethyl]-5-(5-pyrimidin-5-yl-1H-benzimidazol-2-yl)-1,3-oxazolidine-2,4-dione] was tested. Which IC50 did it give?
Answer: Its IC50 is less than 100 nM.

Question: Which IC50 does the source give for `C[C@H](c1ccc(F)cc1)N1C(=O)O[C@](Cc2ccccc2)(c2nc3c(-c4ccnn4C)cccc3[nH]2)C1=O` [Compound 32, (5R)-5-Benzyl-3-[(1R)-1-(4-fluorophenyl)ethyl]-5-[4-(1-methyl-1H-pyrazol-5-yl)-1H-benzimidazol-2-yl]-1,3-oxazolidine-2,4-dione] here?
Answer: Its IC50 is 100 to 500 nM.

Question: How did the IC50 turn out when `O=C1O[C@](Cc2ccccc2)(c2nc3ccc(Cl)cc3[nH]2)C(=O)N1[C@@H]1CCc2ccccc21` [Compound 13, (5R)-5-Benzyl-5-(5-chloro-1H-benzimidazol-2-yl)-3-[(1R)-2,3-dihydro-1H-inden-1-yl]-1,3-oxazolidine-2,4-dione] was run?
Answer: Its IC50 is 100 to 500 nM.

Same assay, conditions: Table 3; PathHunter CHO-K1 cells that overexpress human MR; aldosterone (0.3 nM), 6 hours at 37° C.; antagonist mode; read-out: IC50

Question: For `CCCCC[C@@H](C)N1C(=O)O[C@](Cc2ccccc2)(c2nc3cc(NS(C)(=O)=O)ccc3[nH]2)C1=O` [Example 40, N-(2-((R)-5-benzyl-3-((R)-heptan-2-yl)-2,4-dioxooxazolidin-5-yl)-1H-benzo[d]imidazol-5-yl)methanesulfonamide], which IC50 is on record?
Answer: Its IC50 is 500 to 2000 nM.

Question: How did the IC50 turn out when `CCCCCC[C@@H](C)N1C(=O)O[C@](Cc2ccc(F)cc2)(c2nc3cc(NS(C)(=O)=O)ccc3[nH]2)C1=O` [Example 41, N-(2-((R)-5-(4-fluorobenzyl)-3-((R)-octan-2-yl)-2,4-dioxooxazolidin-5-yl)-1H-benzo[d]imidazol-5-yl)methanesulfonamide] was run?
Answer: Its IC50 is 500 to 2000 nM.

Source: US9193717B2, “Mineralocorticoid receptor antagonists” (Merck Sharp & Dohme Corp., priority 2011, dated 2015)
